From patent US20050084456A1, “Functionalized particles” (priority 2003, published 2005)

Assay: Distribution of intravenously administered FITC-labeled NIPA nanoparticles in uveal tissue
Details: 12 hours after intravenous administration; FIG. 3

Substance: fluorescein-isothiocyanate [FITC]
- presence / accumulation in uveal tissue: no accumulation
